Measurements as given in ChEMBL document CHEMBL4834452, “Discovery of a novel series of substituted quinolines acting as anticancer agents and selective EGFR blocker: Molecular docking study” (Bioorg Med Chem Lett, 2021).

Assays:
[1] = system: MCF7; assay: Anticancer activity against human MCF7 cells assessed as cell growth inhibition measured by MTT assay; type: functional, cell-based
[2] = system: HepG2; assay: Anticancer activity against human HepG2 cells assessed as cell growth inhibition measured by MTT assay; type: functional, cell-based
[3] = system: HCT-116; assay: Anticancer activity against human HCT-116 cells assessed as cell growth inhibition measured by MTT assay; type: functional, cell-based
[4] = system: PC-3; assay: Anticancer activity against human PC-3 cells assessed as cell growth inhibition measured by MTT assay; type: functional, cell-based
[5] = target: Epidermal growth factor receptor (Homo sapiens, UniProt P00533); assay: Inhibition of recombinant wild type EGFR-TK (unknown origin) by ELISA
Sequence of Epidermal growth factor receptor (P00533 whole entry): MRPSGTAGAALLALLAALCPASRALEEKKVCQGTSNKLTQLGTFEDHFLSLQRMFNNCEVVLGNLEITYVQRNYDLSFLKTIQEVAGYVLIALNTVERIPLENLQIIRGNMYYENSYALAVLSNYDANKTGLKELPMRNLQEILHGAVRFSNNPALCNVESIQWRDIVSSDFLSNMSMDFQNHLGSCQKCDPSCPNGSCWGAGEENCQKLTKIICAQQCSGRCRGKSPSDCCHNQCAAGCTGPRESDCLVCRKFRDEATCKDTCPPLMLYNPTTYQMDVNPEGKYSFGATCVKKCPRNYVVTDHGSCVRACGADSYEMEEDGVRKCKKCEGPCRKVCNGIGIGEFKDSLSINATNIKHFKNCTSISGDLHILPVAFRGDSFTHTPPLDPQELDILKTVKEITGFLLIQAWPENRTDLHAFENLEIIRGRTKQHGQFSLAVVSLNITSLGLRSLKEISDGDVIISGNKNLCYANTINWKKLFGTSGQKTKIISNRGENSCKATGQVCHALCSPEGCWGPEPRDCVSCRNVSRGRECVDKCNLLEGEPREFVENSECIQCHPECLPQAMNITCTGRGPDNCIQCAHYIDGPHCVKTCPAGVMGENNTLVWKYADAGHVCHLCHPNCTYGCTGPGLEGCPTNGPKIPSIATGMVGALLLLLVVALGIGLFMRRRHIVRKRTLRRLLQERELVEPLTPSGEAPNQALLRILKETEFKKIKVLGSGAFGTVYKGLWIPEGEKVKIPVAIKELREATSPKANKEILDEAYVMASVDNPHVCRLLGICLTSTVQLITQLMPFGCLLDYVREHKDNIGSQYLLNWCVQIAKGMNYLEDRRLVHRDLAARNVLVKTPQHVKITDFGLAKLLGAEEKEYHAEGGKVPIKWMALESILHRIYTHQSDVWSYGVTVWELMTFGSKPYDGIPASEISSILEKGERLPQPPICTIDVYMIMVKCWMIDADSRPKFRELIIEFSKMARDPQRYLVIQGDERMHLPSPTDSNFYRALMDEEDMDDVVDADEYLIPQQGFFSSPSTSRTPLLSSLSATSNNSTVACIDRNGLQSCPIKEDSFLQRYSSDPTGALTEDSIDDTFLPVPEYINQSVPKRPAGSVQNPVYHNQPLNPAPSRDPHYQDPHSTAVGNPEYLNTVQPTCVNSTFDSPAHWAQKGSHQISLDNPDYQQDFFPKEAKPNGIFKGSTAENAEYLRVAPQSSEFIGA

IC50 [1]	IC50 [2]	IC50 [3]	IC50 [4]	IC50 [5]	Structure (SMILES)
35.1 µM	46.3 µM	53.7 µM	79.7 µM	14.3 µM	COc1ccc(C(Nc2ccccc2)n2c(=O)ccc3cc(O)ccc32)cc1 (centres undefined)
11.3 µM	21.5 µM	20.4 µM	35.2 µM	1.13 µM	COc1ccc(C(Nc2ccc(Cl)cc2)n2c(=O)ccc3cc(O)ccc32)cc1 (centres undefined)
21.1 µM	29.7 µM	36.6 µM	48 µM	1.35 µM	COc1ccc(C(Nc2ccc([N+](=O)[O-])cc2)n2c(=O)ccc3cc(O)ccc32)cc1 (centres undefined)
10.8 µM	18.3 µM	19.6 µM	32.9 µM	0.96 µM	COc1ccc(C(Nc2ccc(Br)cc2)n2c(=O)ccc3cc(O)ccc32)cc1 (centres undefined)
11.6 µM	17.7 µM	20.5 µM	26.9 µM	–	C#Cc1cccc(Nc2ncnc3cc(OCCOC)c(OCCOC)cc23)c1 [ERLOTINIB]
49.2 µM	61.4 µM	73.3 µM	85.3 µM	5.29 µM	COc1ccc(NC(c2ccc(OC)cc2)n2c(=O)ccc3cc(O)ccc32)cc1 (centres undefined)
